Data as given in US20260027220A1, “EPHA2 BCL-XL INHIBITOR ANTIBODY-DRUG CONJUGATES AND METHODS OF USE THEREOF” (Novartis AG, priority 2022, published 2026).

Legend:
EBC-1 xenografts [1] = test: EBC-1 xenograft efficacy, ADC dose reduction alone or with paclitaxel (Table 14, FIG. 2); type: in vivo, mice; conditions: Paclitaxel 12.5 mg/kg SD IV alone
Experimental: (§1) EBC-1 cells were cultured at 37° C. (atmosphere of 5% CO2) in DMEM medium (Gibco 11965-084) supplemented with 10% FBS (HI-FBS #134K19, Tet-free). Panc03.27 cells were cultured at 37° C. (atmosphere of 5% CO2) in RPMI-1640 medium (Gibco 11875-085) supplemented with 15% FBS and 10 units/mL recombinant human insulin. Treatment with 0.25% Trypsin (Gibco 25200-056) was used for sub-culturing. To establish EBC-1 and Panc03.27 xenografts, cells were harvested and re-suspended in a 1:1 v/v mixture of phosphate buffered saline and Matrigel. A total of 5×10^6 EBC-1 cells and 10×10^6 Panc03.27 cells were injected subcutaneously in the flanks of female nude mice (Charles River, USA) in a volume of 200 μL. Tumor growth was monitored regularly post cell inoculation, and animals were randomized into treatment groups (n=8) with a mean tumor volume of about 200 mm^3.
(§2) For EBC-1 efficacy studies, EphA2-DANAPA-L11C-P25 ADC, 3207-DANAPA-L11C-P25 isotype control ADC, and EphA2-DANAPA CysMab control antibody were all dosed in combination with paclitaxel (LC Laboratories, Woburn, MA, Cat #: P-9600), as indicated in FIG. 1 and FIG. 2. For Panc03.27 efficacy studies, EphA2-DANAPA-L11C-P25 ADC, 3207-DANAPA-L11C-P25 isotype control ADC, and EphA2-DANAPA CysMab control antibody were all dosed in combination with either gemcitabine (Hospira, NDC Code 0409-0185-01) or the MAPK inhibitors (MAPKi) LXH254 and CFF272, as indicated in FIG. 3 and FIG. 4 respectively. […]
(§3) Tumor volume data were analyzed for statistical significance relative to the EphA2-DANAPA-L11C-P25 ADC combination groups. […]
(§4) As a measure of efficacy, % T/C values were calculated according to the following formula: (Δtumor volume in experimental group/Δtumor volume in vehicle control group)*100. Tumor regression was calculated according to the following formula: (Δtumor volume in experimental group/tumor volume in experimental group at start)*100. Δtumor volumes represent mean tumor volumes on the measurement day minus the mean tumor volume at the start of treatment. […]

EBC-1 xenografts [2] = test: EBC-1 xenograft efficacy, combination with paclitaxel (Table 13, FIG. 1); type: in vivo, mice; conditions: Paclitaxel 12.5 mg/kg SD IV alone; Day 12
Experimental: as §1, §2, §3, §4

sw403 = test: CellTiter-Glo proliferation assay, sw403; type: cell-based; conditions: single agent, 5 days of treatment
Experimental: (§5) EphA2-L11A-P21 antibody drug conjugate (ADC) alone or in combination with Trametinib were tested against cancer cell lines obtained from ATCC (American Type Culture Collection) or from other commercial cell line vendors. EphA2-L11A-P21 ADC was prepared according to any of the conjugation methods described herein. The cells were cultured in media that is optimal for their growth at 5% CO2, 37° C. in a tissue culture incubator. Prior to seeding for the proliferation assay, the cells were split at least 2 days before the assay to ensure optimal growth density. On the day of seeding, cells were lifted off tissue culture flasks using 0.25% trypsin. Cell viability and cell density were determined using a cell counter (Vi-Cell XR Cell Viability Analyzer, Beckman Coulter). […]
(§6) The ADCs were prepared in standard phosphate buffered solution to desired concentrations. […] The ability of the ADCs to inhibit cell proliferation and survival was assessed using the Promega CellTiter-Glo® proliferation assay. Plates were incubated at room temperature for 20 minutes to stabilize luminescent signals prior to reading using a multimode plate reader (Pherastar, BMG). Luminescent counts of untreated cells were taken the day after seeding (Day 0 readings), and after 5 days of treatment (Day 5 readings). The Day 5 readings of the untreated cells were compared to the Day 0 readings. […]

ncin87 = test: CellTiter-Glo proliferation assay, ncin87; type: cell-based; conditions: single agent, 5 days of treatment
Experimental: as §5, §6

skhep1 = test: CellTiter-Glo proliferation assay, skhep1; type: cell-based; conditions: single agent, 5 days of treatment
Experimental: as §5, §6

aspc1 = test: CellTiter-Glo proliferation assay, aspc1; type: cell-based; conditions: single agent, 5 days of treatment
Experimental: as §5, §6

ebc1 = test: CellTiter-Glo proliferation assay, ebc1; type: cell-based; conditions: single agent, 5 days of treatment
Experimental: as §5, §6

jhom2b = test: CellTiter-Glo proliferation assay, jhom2b; type: cell-based; conditions: single agent, 5 days of treatment
Experimental: as §5, §6

skmel31 = test: CellTiter-Glo proliferation assay, skmel31; type: cell-based; conditions: single agent, 5 days of treatment
Experimental: as §5, §6

dv90 = test: CellTiter-Glo proliferation assay, dv90; type: cell-based; conditions: single agent, 5 days of treatment
Experimental: as §5, §6

capan2 = test: CellTiter-Glo proliferation assay, capan2; type: cell-based; conditions: single agent, 5 days of treatment
Experimental: as §5, §6

hcc1143 = test: CellTiter-Glo proliferation assay, hcc1143; type: cell-based; conditions: single agent, 5 days of treatment
Experimental: as §5, §6

ocum1 = test: CellTiter-Glo proliferation assay, ocum1; type: cell-based; conditions: single agent, 5 days of treatment
Experimental: as §5, §6

panc0327 = test: CellTiter-Glo proliferation assay, panc0327; type: cell-based; conditions: single agent, 5 days of treatment
Experimental: as §5, §6

Panc03.27 xenografts = test: Panc03.27 xenograft efficacy, combination with gemcitabine (Table 15, FIG. 3); type: in vivo, mice; conditions: Gemcitabine 100 mg/kg IP q3dx3 alone
Experimental: as §1, §2, §3, §4

cyno EphA2 ectodomain [3] = biological target: T1, cyno EphA2 ectodomain (cyno, UniProt Q1KL86 25-537); test: SPR (Biacore 8k), Fab-capture, 37C, 1:1 model; *low binding signal
T1 construct: extracellular domain
T1 sequence (Q1KL86 25-537): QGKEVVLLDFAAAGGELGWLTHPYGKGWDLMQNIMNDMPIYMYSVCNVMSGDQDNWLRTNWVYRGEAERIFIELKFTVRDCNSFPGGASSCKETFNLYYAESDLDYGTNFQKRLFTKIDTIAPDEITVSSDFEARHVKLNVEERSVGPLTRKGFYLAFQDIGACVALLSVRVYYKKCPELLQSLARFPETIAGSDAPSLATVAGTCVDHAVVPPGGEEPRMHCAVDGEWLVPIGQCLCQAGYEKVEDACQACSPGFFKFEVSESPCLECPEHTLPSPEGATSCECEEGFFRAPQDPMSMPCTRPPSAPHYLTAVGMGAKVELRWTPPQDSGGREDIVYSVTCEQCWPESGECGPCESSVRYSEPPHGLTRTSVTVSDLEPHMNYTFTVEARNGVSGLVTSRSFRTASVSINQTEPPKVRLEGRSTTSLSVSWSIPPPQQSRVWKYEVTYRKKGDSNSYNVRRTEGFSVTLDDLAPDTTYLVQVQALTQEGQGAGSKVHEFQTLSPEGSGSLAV
Experimental: (§7) A human Fab capture method was utilized in order to determine kinetics for the antibodies. […] Each channel has two flow cells. The reference flow cell contained only immobilized anti-Fab, whereas the reaction flow cell captured anti-EphA2 IgG through anti-Fab. HBS-EP+ Buffer, pH 7.6 was used as the running buffer. The soluble human, mouse and cyno EphA2 ectodomain flowed over both flow cells on 8 channels. The EphA2 ectodomain concentration started at 50 nM and was serially diluted at one part to one part (1:1) in the running buffer for six concentrations. The analysis chamber was kept at 37° C. Regeneration was performed at the end of each sample washing with the solution of 10 mM Glycine-HCl, pH 2.1 provided in the kit.
(§8) The data were analysed using the Biacore Insight Evaluation Software. Double reference subtraction was completed to generate the final data. The raw data was fitted to a 1:1 binding model, with parameter(s) Rₘₐₓ set to local.

cyno EphA2 ectodomain [4] = biological target: T1, cyno EphA2 ectodomain; test: SPR (Biacore 8k), Fab-capture, 37C, 1:1 model;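 further: Anti-EphA2 IgG captured via immobilized anti-Fab, soluble EphA2 ectodomain as analyte at six twofold dilutions from 50 nM, HBS-EP+ pH 7.6 running buffer, double reference subtraction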
Experimental: as §7, §8

How did the “% T/C” value (EBC-1 xenografts [1]; Day 14) turn out when CC(=O)O[C@H]1C(=O)[C@@]2(C)[C@H]([C@H](OC(=O)c3ccccc3)[C@]3(O)C[C@H](OC(=O)[C@H](O)[C@@H](NC(=O)c4ccccc4)c4ccccc4)C(C)=C1C3(C)C)[C@]1(OC(C)=O)CO[C@@H]1C[C@@H]2O [Paclitaxel, paclitaxel] was run?
Its value is 71%.

What about the “ΔTumor volume (mm^3 ± SEM)” value (EBC-1 xenografts [1]; Day 14) of the same molecule?
The value was 649 ± 97 mm^3.

What about the “Complete Responders” value (EBC-1 xenografts [1]; Day 16) of the same molecule?
Its value is 0/8.

What about the “% T/C” value (EBC-1 xenografts [2]) of the same molecule?
The value was 46%.

What about the “Complete Responders” value (EBC-1 xenografts [2]) of the same molecule?
The value was 0/8.

What about the “ΔTumor volume (mm^3 ± SEM)” value (EBC-1 xenografts [2]) of the same molecule?
Its value is 687 ± 224 mm^3.

Which results are given for Cc1c(Nc2nc3ccccc3s2)nnc2c1CCCN2c1ccc(-c2cnn(C[C@]34C[C@]5(C)C[C@](C)(C3)C[C@@](OCCN3CCCC3)(C5)C4)c2C)c(C(=O)O)n1 [P21, 6-[3-(1,3-benzothiazol-2-ylamino)-4-methyl-6,7-dihydro-5H-pyrido[2,3-c]pyridazin-8-yl]-3-[1-[[3,5-dimethyl-7-(2-pyrrolidin-1-ylethoxy)-1-adamantyl]methyl]-5-methyl-pyrazol-4-yl]pyridine-2-carboxylic acid]?
GI50 (sw403; Homo sapiens, SW-403, 120 h): 5.32 nM; GI Amax (sw403): −64.33; GI50 (ncin87; Homo sapiens, NCI-N87, 120 h): 0.77 nM; GI Amax (ncin87): −29.31; GI50 (skhep1; Homo sapiens, SK-HEP1, 120 h): 0.05 nM; GI Amax (skhep1): −75.34; GI50 (aspc1; Homo sapiens, 120 h): 42.2 nM; GI Amax (aspc1): 2.18; GI50 (ebc1; Homo sapiens, EBC-1, 120 h): 0.26 nM; GI Amax (ebc1): −96.78; GI50 (jhom2b; 120 h): 68.8 nM; GI Amax (jhom2b): −27.63; GI50 (skmel31; 120 h): 0.05 nM; GI Amax (skmel31): −56.5; GI50 (dv90; Homo sapiens, DV-90, 120 h): 266 nM; GI Amax (dv90): 16.76; GI50 (capan2; Homo sapiens, Capan-2, 120 h): 4.38 nM; GI Amax (capan2): −81.72; GI50 (hcc1143; Homo sapiens, 120 h): 0.99 nM; GI Amax (hcc1143): −43.38; GI50 (ocum1; 120 h): 0.49 nM; GI Amax (ocum1): −94.77; GI50 (panc0327; Homo sapiens, PANC-03-27, 120 h): 2.35 nM; GI Amax (panc0327): −79.2

Which results are given for Nc1ccn([C@@H]2O[C@H](CO)[C@@H](O)C2(F)F)c(=O)n1 [Gemcitabine]?
% T/C (Panc03.27 xenografts; Day 11): 31%; ΔTumor volume (mm^3 ± SEM) (Panc03.27 xenografts; Day 11): 153 ± 39 mm^3; Complete Responders (Panc03.27 xenografts; Day 34): 0/8

B1: anti-EphA2 E152C S375C 1C1 (LC S10T) hIgG1 (WT Heavy Chain) (antibody, V domains shown)
VH: EVQLLESGGGLVQPGGSLRLSCAASGFTFSHYMMAWVRQAPGKGLEWVSRIGPSGGPTHYADSVKGRFTISRDNSKNTLYLQMNSLRAEDTAVYYCAGYDSGYDYVAVAGPAEYFQHWGQGTLVTVSS
VL: DIQMTQSPSTLSASVGDRVTITCRASQSISTWLAWYQQKPGKAPKLLIYKASNLHTGVPSRFSGSGSGTEFSLTISGLQPDDFATYYCQQYNSYSRTFGQGTKVEIKR
notes: also called BB-60-FO04
Which Kd (cyno EphA2 ectodomain [3]) does the source give for B1 here?
The Kd was 196 nM.

B2: 1C1 ADC (antibody, V domains shown)
VH: EVQLLESGGGLVQPGGSLRLSCAASGFTFSHYMMAWVRQAPGKGLEWVSRIGPSGGPTHYADSVKGRFTISRDNSKNTLYLQMNSLRAEDTAVYYCAGYDSGYDYVAVAGPAEYFQHWGQGTLVTVSS
VL: DIQMTQSPSSLSASVGDRVTITCRASQSISTWLAWYQQKPGKAPKLLIYKASNLHTGVPSRFSGSGSGTEFSLTISGLQPDDFATYYCQQYNSYSRTFGQGTKVEIK
modifications: antibody-drug conjugate; linker-payload and conjugation sites not stated for this sample
notes: Antibody-drug conjugate of 1C1; also called XD-01-KE85
B2 was tested. Which Kd (cyno EphA2 ectodomain [4]) did it give?
The Kd was 220 nM.

B3: LC Germ (1C1) (antibody, V domains shown)
VH: EVQLLESGGGLVQPGGSLRLSCAASGFTFSHYMMAWVRQAPGKGLEWVSRIGPSGGPTHYADSVKGRFTISRDNSKNTLYLQMNSLRAEDTAVYYCAGYDSGYDYVAVAGPAEYFQHWGQGTLVTVSS
VL: DIQMTQSPSSLSASVGDRVTITCRASQSISTWLAWYQQKPGKAPKLLIYKASNLHTGVPSRFSGSGSGTEFSLTISGLQPDDFATYYCQQYNSYSRTFGQGTKVEIK
notes: also called lots BA-71-QS06, HE-38-AZ34
With B3 as the molecule, how does the Kd (cyno EphA2 ectodomain [4]) read?
Its Kd is 224 nM.

B4: anti-EphA2 IgG antibody 1C1 (antibody, V domains shown)
VH: EVQLLESGGGLVQPGGSLRLSCAASGFTFSHYMMAWVRQAPGKGLEWVSRIGPSGGPTHYADSVKGRFTISRDNSKNTLYLQMNSLRAEDTAVYYCAGYDSGYDYVAVAGPAEYFQHWGQGTLVTVSS
VL: DIQMTQSPSSLSASVGDRVTITCRASQSISTWLAWYQQKPGKAPKLLIYKASNLHTGVPSRFSGSGSGTEFSLTISGLQPDDFATYYCQQYNSYSRTFGQGTKVEIK
notes: Tested as IgG; also called 1C1 WT IgG; iProt 120126
How did the Kd (cyno EphA2 ectodomain [4]) turn out when B4 was run?
The Kd was 265 nM.
